Experiments:
Fusarium culmorum [1] = test: Protection of seedlings against plant pathogenic seed fungus by seed treatment (wheat); format: in vivo; settings: wheat seed infested with Fusarium culmorum; 3 g composition (10% by weight in kaolin) per kg of seed; after three weeks, 8°-12° C.; untreated 67
Protocol: Test with respect to the protection of seedlings against a plant pathogenic seed fungus, namely Fusarium culmorum, by means of a seed treatment.
Wheat seed, infested with Fusarium culmorum, is treated with the substance to be tested in the form of a composi tion in a quantity of 3 g per kg of seed. The composition is obtained by pulverising the substance to be tested and then intimately mixing with kaolin in a concentration of 10% by weight. The seed thus treated is sown in a tray containing soil which is placed in a Wisconsin tank with a bottom temperature of 8°-12° C. After three weeks the number of emerged and healthy plants is determined. The emergence of healthy plants from untreated seed serves as control. For comparison, the known substances 2-methylsulphinyl-4-methyl-5-nitrothiazole (a), 2-methylsulphinyl-3-nitrothiophene (b) and 2-ethylsulphinyl-3-nitro-5-acetylthiophene (c) mentioned hereinbefore are also tested. In the examples, the numbers of the compounds refer to the specification.

Pythium spp. = test: Protection of seedlings against plant-pathogenic soil fungus by seed treatment (beet); format: in vivo; settings: after 3 weeks, 18°-22° C., untreated 72
Protocol: Test with respect to the protection of seedlings against a plant-pathogenicsoil fungus, namely Pythium spp., by means of a seed treatment.
The compounds to be tested are processed to compositions by pulverising them and then mixing them intimately with kaolin in the desired concentration (see Table B). Beet seed is treated with these compositions in a quantity of 6 g of composition per kg of seed and then sown in trays with soil which was seriously infested with Pythium spp. After 3 weeks in a glass-house at 18°-22° C. and a relative humidity of 70-100%, the percentage of non-emerged and diseased seedlings (damping-off) is determined. The results are recorded in Table B. For comparison, the known substance 2-methylsulphinyl-4-methyl-5-nitrothiazole(a) is also tested.

Pyrenophora graminea = test: In vitro test on activity against Pyrenophora graminea; format: cell-based; settings: 48 hours, 20° C., read-out: % growth inhibition of the fungus
Protocol: In vitro test on activity against Pyrenophora graminea.
(§1) The compound to be tested is processed in a culture medium consisting of 1% by weight of glucose, 0.2% by weight of a yeast extract (marmite), 0.5% by weight of a protein (pepton), 2.5% by weight of agar-agar, and 95.8% by weight of water, in petri dishes in concentrations of 3 and 10 ppm. The petri dishes are inoculated with the plant-pathogenic fungus Pyrenophora graminea and then kept at a temperature of 20° C. After 48 hours the growth-inhibiting activity of the compounds is determined visually. For comparison, the known substance (b) (see EXAMPLE XV) is also tested.

Fusarium culmorum [2] = test: In vitro test on activity against Fusarium culmorum; format: cell-based; settings: read-out: growth inhibition of the fungus
Leptosphaeria nodorum = test: In vitro test on activity against Leptosphaeria nodorum; format: cell-based; settings: Parastagonospora nodorum, read-out: growth inhibition of the fungus
Outline: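 Compounds were incorporated at 3 and 10 ppm into glucose/yeast extract/peptone agar plates inoculated with the fungus. Plates were held at 20 °C, and growth inhibition was scored visually after 48 h.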

Pythium splendens = test: In vitro test on activity against Pythium splendens; format: cell-based; settings: Globisporangium splendens, read-out: growth inhibition of the fungus
Rhizoctonia solani = test: In vitro test on activity against Rhizoctonia solani; format: cell-based; settings: read-out: growth inhibition of the fungus
Protocol: as §1, with “in petri dishes in concentrations of 3 and 10 ppm.” left out
Compounds according to the invention are tested on Rhizoctonia solani in the same manner as described in EXAMPLE XIX.

[3] = Acute oral toxicity (lethal dose) in male mice; settings: mouse, in vivo, acute mortality, mg/kg of body weight
Protocol: Toxicity with respect to warm-blooded living beings.
The LD50 is determined by orally administering the substance to be tested to male mice and determining the acute mortality. In Table C below, the LD50 is recorded in mg/kg of body weight.
For comparison, the known compound (b) (see EXAMPLE XV) is also tested.

[4] = tested on: soil-borne and seed-borne pathogenic micro-organisms; test: Fungicidal activity in practice (general statement); settings: in words
[5] = tested on: warm-blooded living beings; test: Toxicity with respect to warm-blooded living beings (general statement); settings: in words
[6] = 600 mg of active substance per kg of seed
[7] = 1200 mg of active substance per kg of seed

| Structure (SMILES) | Percentage of emerged, healthy plants (Fusarium culmorum [1]) [%] | percentage damping-off (Pythium spp.; [6]) [%] | percentage damping-off (Pythium spp.; [7]) [%] | inhibition at 3 ppm (Pyrenophora graminea) [%] | inhibition at 10 ppm (Pyrenophora graminea) [%] | inhibition at 30 ppm (Fusarium culmorum [2]) [%] | inhibition at 30 ppm (Leptosphaeria nodorum) [%] | inhibition at 10 ppm (Pythium splendens) [%] | inhibition at 30 ppm (Rhizoctonia solani) [%] | LD50 [3] [mg/kg] | activity [4] | toxicity with respect to warm-blooded living beings [5] |
| --- | --- | --- | --- | --- | --- | --- | --- | --- | --- | --- | --- | --- |
| CC(=O)c1sc([S+](C)[O-])c(C#N)c1Cl (stereo not drawn) [(2), 2-methylsulphinyl-3-cyano-4-chloro-5-acetylthiophene] | 87 | 7 | 6 | 64 | 79 | ≥ 75 | ≥ 85 | ≥ 95 | ≥ 75 |  |  |  |
| C[S+]([O-])c1sc(C#N)c(Cl)c1C#N (stereo not drawn) [(3), 2-methylsulphinyl-3,5-dicyano-4-chlorothiophene] | 91 | 6 | 5 | 57 | 80 | ≥ 75 | ≥ 85 | ≥ 95 | ≥ 75 |  |  |  |
| CC[S+]([O-])c1sc(C#N)c(Cl)c1C#N (stereo not drawn) [(7), 2-ethylsulphinyl-3,5-dicyano-4-chlorothiophene] | 98 | 17 | 17 | 59 | 83 | ≥ 75 | ≥ 85 | ≥ 95 |  | 400 |  |  |
| CC[S+]([O-])c1sc(C#N)cc1C#N (stereo not drawn) [(8), 2-ethylsulphinyl-3,5-dicyanothiophene] | 92 | 16 | 12 | 49 | 72 |  |  | ≥ 95 |  | 119 |  |  |
| CC[S+]([O-])c1sc(C(C)=O)c(N)c1C#N (stereo not drawn) [(10), 2-ethylsulphinyl-3-cyano-4-amino-5-acetylthiophene] | 98 | 10 | 9 |  |  |  | ≥ 85 | ≥ 95 |  | 141 |  |  |
| CC[S+]([O-])c1sc(C#N)c(OC)c1C#N (stereo not drawn) [(13), 2-ethylsulphinyl-3,5-dicyano-4-methoxythiophene] | 90 | 3 | 1 |  |  | ≥ 75 | ≥ 85 | ≥ 95 |  | 130 |  |  |
| CCC[S+]([O-])c1sc(C#N)c(Cl)c1C#N (stereo not drawn) [(33), 2-n-propylsulphinyl-3,5-dicyano-4-chlorothiophene] |  |  |  |  | 83 | ≥ 75 | ≥ 85 | ≥ 95 | ≥ 75 | 246 |  |  |
| CCCC[S+]([O-])c1sc(C#N)c(Cl)c1C#N (stereo not drawn) [(43), 2-n-butylsulphinyl-3,5-dicyano-4-chlorothiophene] |  |  |  |  | 72 | ≥ 75 | ≥ 85 | ≥ 95 | ≥ 75 | 246 |  |  |
| Cc1nc([S+](C)[O-])sc1[N+](=O)[O-] (stereo not drawn) [(a), 2-methylsulphinyl-4-methyl-5-nitrothiazole, reference compound] | 68 | 57 | 45 |  |  |  |  |  |  |  | insufficiently active |  |
| C[S+]([O-])c1sccc1[N+](=O)[O-] (stereo not drawn) [(b), 2-methylsulphinyl-3-nitrothiophene, reference compound] | 75 |  |  | 0 | 37 |  |  |  |  | 31.6 | leaves to be desired in practice | undesired toxicity |
| CC[S+]([O-])c1sc(C(C)=O)cc1[N+](=O)[O-] (stereo not drawn) [(c), 2-ethylsulphinyl-3-nitro-5-acetylthiophene] | 74 |  |  |  |  |  |  |  |  |  | leaves to be desired in practice | undesired toxicity |

From patent publication US4994485A, “Thio compounds having fungicidal activity” (Duphar International Research B.V., priority 1986, dated 1991)
